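Assay format: 96-well plates, 48-hour exposure. TGI: concentration producing complete growth inhibition.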 Where a SMILES comes first, the peptide text is derived from it. [ ]: non-standard residue; d: D form. The star is where a group is joined. hSer = N[CH](CCO)C(=O)O; Boc = CC(C)(C)OC(=O)*
Assays:
Assay in all cases: growth of human tumour cells (NCI), 48 h
HS 578T breast = system: HS 578T breast
NCI-H226 lung = system: NCI-H226 lung
HOP-62 NSCLC = system: HOP-62 NSCLC
SK-OV-3 ovarian = system: SK-OV-3 ovarian
HOP-92 NSCLC = system: HOP-92 NSCLC
OVCAR-8 ovarian = system: OVCAR-8 ovarian
SR leukemia = system: SR leukemia
UACC-62 melanoma = system: UACC-62 melanoma
OVCAR-4 ovarian = system: OVCAR-4 ovarian
SW-620 colon = system: SW-620 colon

SMILES	TGI (HS 578T breast) [µM]	TGI (NCI-H226 lung) [µM]	TGI (HOP-62 NSCLC) [µM]	TGI (SK-OV-3 ovarian) [µM]	TGI (HOP-92 NSCLC) [µM]	TGI (OVCAR-8 ovarian) [µM]	TGI (SR leukemia) [µM]	TGI (UACC-62 melanoma) [µM]	TGI (OVCAR-4 ovarian) [µM]	TGI (SW-620 colon) [µM]
CN(NC(=O)c1ccco1)C1=NCCCCN1	> 100	> 100	> 100	> 100	> 100	> 100	> 100	> 100	> 100	> 100
CCOC(=O)C(NCc1ccccc1)(NC(=O)c1ccccc1)C(F)(F)F (stereo not given)	> 100	> 100	> 100	> 100	> 100	> 100	> 100	> 100	> 100	> 100
CCC1(O)C=CC(=O)C=C1	> 100	75.3	67.5	> 100	75.9	> 100	> 100	43.6	> 100	> 100
[N-]=N[N+]#I1OC(C(F)(F)F)(C(F)(F)F)c2ccccc21	37.3	54.1	28.4	58.8	27	34.5	68.3	47.8	28.9	40
Nc1c(Br)cc(-c2cc(Br)c(N)c(Br)c2)cc1Br	> 100	> 100	> 100	> 100	> 100	> 100	> 100	> 100	> 100	> 100
CCCCCCCCCCCCNC(=O)NCC(OCC)OCC	> 10	> 10	> 10	> 10	> 10	> 10	> 10	> 10	> 10	> 10
O=[N+]([O-])/C(C(Cl)=C(Cl)Cl)=C1\Nc2ccccc2O1	> 100	59.7	> 100	> 100	62.4	63.9	63.7	> 100	> 100	> 100
COCCC(NC(=O)C(CC(C)C)NC(=O)OC(C)(C)C)C(N)=O (stereo not drawn) (Boc-Leu-[hSer](Me)-NH2; configuration not given here)	> 100	> 100	> 100	> 100	> 100	> 100	> 100	> 100	> 100	> 100
COC1/C=C\C=C(/C)C(=O)NC2=CC(=O)C(NCCCl)=C(CC(C)CC(OC)C(O)C(C)/C=C(/C)C1OC(N)=O)C2=O (stereo not given)	58.4	8.62	5.91	2.11	18.6	10.5	1.67	1.33	15	2.55
O=C(CCSC(CC(=O)c1ccc(Cl)cc1)c1ccc(Cl)cc1)Nc1ccc(Cl)cc1 (stereo not given)	64.1	41.5	29.1	42.3	32.9	29.1	9.57	21.9	35.5	10.5
N#CC(c1ccc(O)cc1)N1CCN(C(C#N)c2ccc(O)cc2)CC1 (stereo not given)	> 100	> 77.6	57.1	> 100	60.1	> 53.1	> 100	> 100	> 100	> 100
c1ccc(COc2ccc(C[P+](c3ccccc3)(c3ccccc3)c3ccccc3)cc2)cc1	3.19	22.4	3.37	3.42	0.585	2.18	> 24.2	1.74	1.84	10.2
COc1ccc(C2SCC(=O)N2N=C2NC(=O)CC(=O)N2)cc1 (stereo not given)	> 100	> 100	> 100	> 100	> 100	> 100	> 100	> 100	> 100	> 100
O=C(Cc1ccc(Cl)c(Cl)c1)NCCCN1CCN(CCCN2CCCCC2)CC1	> 100	42.4	32.1	40.8	24.8	> 100	29	13.8	> 100	46.7
